# Results: US20170210723A1, “MOLECULES HAVING PESTICIDAL UTILITY, AND INTERMEDIATES, COMPOSITIONS, AND PROCESSES, RELATED THERETO” (priority 2016, published 2017)
# Key:
# Format in all cases: in vivo
# [1] = test system: Beet Armyworm (Spodoptera exigua); assay: Bioassays on BAW, 128-well diet tray assay; details: Spodoptera exigua, 168 h; 50 μg/cm^2 on artificial diet, second instar larvae, five to seven days; read-out: BAW % Control (or Mortality) rating
# Experimental: Bioassays on BAW were conducted using a 128-well diet tray assay. One to five second instar BAW larvae were placed in each well (3 mL) of the diet tray that had been previously filled with 1 mL of artificial diet to which 50 μg/cm^2 of the test molecule (dissolved in 50 μL of 90:10 acetone-water mixture) had been applied (to each of eight wells) and then allowed to dry. Trays were covered with a clear self-adhesive cover and held at 25° C., 14:10 light-dark for five to seven days. Percent mortality was recorded for the larvae in each well; activity in the eight wells was then averaged. The results are indicated in the table entitled “Table ABC: Biological Results” (See Table Section).
# (§1) Bioassays on BAW and CL were conducted according to the procedures outlined in Example A: Bioassays on Beet Armyworm (“BAW”) and Cabbage Looper (“CL”) using the indicated concentrations.
# [2] = test system: Cabbage Looper (Trichoplusia ni); assay: Bioassays on CL, 128-well diet tray assay; details: Trichoplusia ni, 168 h; 50 μg/cm^2 on artificial diet, second instar larvae, five to seven days; read-out: CL % Control (or Mortality) rating
# Experimental: Bioassays on CL were conducted using a 128-well diet tray assay.
# One to five second instar CL larvae were placed in each well (3 mL) of the diet tray that had been previously filled with 1 mL of artificial diet to which 50 μg/cm^2 of the test molecule (dissolved in 50 μL of 90:10 acetone-water mixture) had been applied (to each of eight wells) and then allowed to dry. Trays were covered with a clear self-adhesive cover and held at 25° C., 14:10 light-dark for five to seven days. Percent mortality was recorded for the larvae in each well; activity in the eight wells was then averaged. The results are indicated in the table entitled “Table ABC: Biological Results” (See Table Section).
# as §1
# [3] = test system: Yellow Fever Mosquito (Aedes aegypti); assay: Bioassays on Yellow Fever Mosquito larvae, 96-well plate; details: from 4000 ppm DMSO master plate, about 1 day-old larvae, 3 days
# Experimental: Master plates containing 400 μg of a molecule dissolved in 100 μL of dimethyl sulfoxide (DMSO) (equivalent to a 4000 ppm solution) are used. A master plate of assembled molecules contains 15 μL per well. To this plate, 135 μL of a 90:10 water:acetone mixture is added to each well. A robot (Biomek® NXP Laboratory Automation Workstation) is programmed to dispense 15 μL aspirations from the master plate into an empty 96-well shallow plate (“daughter” plate). There are 6 reps (“daughter” plates) created per master. The created daughter plates are then immediately infested with YFM larvae.
# The day before plates are to be treated, mosquito eggs are placed in Millipore water containing liver powder to begin hatching (4 g. into 400 mL). After the daughter plates are created using the robot, they are infested with 220 μL of the liver powder/larval mosquito mixture (about 1 day-old larvae). After plates are infested with mosquito larvae, a non-evaporative lid is used to cover the plate to reduce drying. Plates are held at room temperature for 3 days prior to grading. After 3 days, each well is observed and scored based on mortality. The results are indicated in the table entitled “Table ABC: Biological Results” (See Table Section). AGRICULTURALLY ACCEPTABLE ACID ADDITION SALTS, SALT DERIVATIVES, SOLVATES, ESTER DERIVATIVES, POLYMORPHS, ISOTOPES, AND RADIONUCLIDES
Structure (SMILES),mortality at 50 µg/cm2 [1],mortality at 50 µg/cm2 [2],YFM % Control (or Mortality) rating [3]
"C[C@H](CS(=O)(=O)CC(F)(F)F)NC(=O)c1ccc(/C=C/C(c2cc(Cl)c(Cl)c(Cl)c2)C(F)F)cc1C(F)(F)F (stereo partly drawn) [F118, 4-((E)-4,4-Difluoro-3-(3,4,5-trichlorophenyl)but-1-en-1-yl)-N—((R)-1-((2,2,2-trifluoroethyl)sulfonyl)propan-2-yl)-2-(trifluoromethyl)benzamide]",50 to 100%,50 to 100%,A (80-100)
"CC[C@H](CSCCC(F)(F)F)NC(=O)c1ccc(/C=C/C(c2cc(Cl)c(Cl)c(Cl)c2)C(F)(F)F)cc1C(F)(F)F (stereo partly drawn) [F11, 4-((E)-4,4,4-trifluoro-3-(3,4,5-trichlorophenyl)but-1-en-1-yl)-2-(trifluoromethyl)-N—((R)-1-((3,3,3-trifluoropropyl)thio)butan-2-yl)benzamide]",50 to 100%,50 to 100%,B (More than 0-Less than 80)
"CCSC[C@@H](C)NC(=O)c1ccc(/C=C/C(c2cc(Cl)c(Cl)c(Cl)c2)C(F)(F)F)cc1C(F)(F)F (stereo partly drawn) [F62, N—((R)-1-(Ethylthio)propan-2-yl)-4-((E)-4,4,4-trifluoro-3-(3,4,5-trichlorophenyl)but-1-en-1-yl)-2-(trifluoromethyl)benzamide]",50 to 100%,50 to 100%,A (80-100)
"CCc1cc(/C=C/C(c2cc(Cl)c(Cl)c(Cl)c2)C(F)(F)F)ccc1C(=O)N[C@H](C)CS(=O)(=O)CC(F)(F)F (stereo partly drawn) [F71, 2-Ethyl-4-((E)-4,4,4-trifluoro-3-(3,4,5-trichlorophenyl)but-1-en-1-yl)-N—((R)-1-((2,2,2-trifluoroethyl)sulfonyl)propan-2-yl)benzamide]",50 to 100%,50 to 100%,A (80-100)
"CC(C)CSC[C@@H](C)NC(=O)c1ccc(/C=C/C(c2cc(Cl)c(Cl)c(Cl)c2)C(F)(F)F)cc1C(F)(F)F (stereo partly drawn) [F85, N—((R)-1-(Isobutylthio)propan-2-yl)-4-((E)-4,4,4-trifluoro-3-(3,4,5-trichlorophenyl)but-1-en-1-yl)-2-(trifluoromethyl)benzamide]",50 to 100%,50 to 100%,A (80-100)
"C=CCS(=O)(=O)C[C@@H](C)NC(=O)c1ccc(/C=C/C(c2cc(Cl)c(Cl)c(Cl)c2)C(F)(F)F)cc1C(F)(F)F (stereo partly drawn) [F102, N—((R)-1-(Allylsulfonyl)propan-2-yl)-4-((E)-4,4,4-trifluoro-3-(3,4,5-trichlorophenyl)but-1-en-1-yl)-2-(trifluoromethyl)benzamide]",50 to 100%,50 to 100%,A (80-100)
"C[C@H](CSCC(F)(F)F)NC(=O)c1ccc(/C=C/C(c2cc(Cl)cc(Cl)c2)C(F)(F)F)cc1C(F)(F)F (stereo partly drawn) [F88, 4-((E)-3-(3,5-Dichlorophenyl)-4,4,4-trifluorobut-1-en-1-yl)-N—((R)-1-((2,2,2-trifluoroethyl)thio)propan-2-yl)-2-(trifluoromethyl)benzamide]",50 to 100%,50 to 100%,A (80-100)
"CC(C)(CS(=O)(=O)CC(F)(F)F)NC(=O)c1ccc(/C=C/C(c2cc(Cl)c(Cl)c(Cl)c2)C(F)(F)F)cc1C(F)(F)F (stereo not shown) [F48, (E)-N-(2-Methyl-1-((2,2,2-trifluoroethyl)sulfonyl)propan-2-yl)-4-(4,4,4-trifluoro-3-(3,4,5-trichlorophenyl)but-1-en-1-yl)-2-(trifluoromethyl)benzamide]",50 to 100%,50 to 100%,A (80-100)
"CC[C@H](CSCC1CC1(F)F)NC(=O)c1ccc(/C=C/C(c2cc(Cl)c(Cl)c(Cl)c2)C(F)(F)F)cc1C(F)(F)F (stereo partly drawn) [F13, N-((2R)-1-(((2,2-Difluorocyclopropyl)methyl)thio)butan-2-yl)-4-((E)-4,4,4-trifluoro-3-(3,4,5-trichlorophenyl)but-1-en-1-yl)-2-(trifluoromethyl)benzamide]",50 to 100%,50 to 100%,A (80-100)
"O=C(NCCSCC(F)(F)F)c1ccc(/C=C/C(c2cc(Cl)c(Cl)c(Cl)c2)C(F)(F)F)cc1Br (stereo not shown) [F1, (E)-2-bromo-4-(4,4,4-trifluoro-3-(3,4,5-trichlorophenyl)but-1-en-1-yl)-N-(2-((2,2,2-trifluoroethyl)thio)ethyl)benzamide]",50 to 100%,50 to 100%,A (80-100)
"C[C@H](C[S+]([O-])CC(F)(F)F)NC(=O)c1ccc(/C=C/C(c2cc(Cl)c(C#N)c(Cl)c2)C(F)(F)F)cc1C(F)(F)F (stereo partly drawn) [F53, 4-((E)-3-(3,5-Dichloro-4-cyanophenyl)-4,4,4-trifluorobut-1-en-1-yl)-N-((2R)-1-((2,2,2-trifluoroethyl)sulfinyl)propan-2-yl)-2-(trifluoromethyl)benzamide]",50 to 100%,50 to 100%,A (80-100)
C[C@H](C[S+]([O-])CC(F)(F)F)NC(=O)c1ccc(/C=C/C(c2cc(Cl)c(F)c(Cl)c2)C(F)(F)F)cc1C(F)(F)F (stereo partly shown) [F37],50 to 100%,50 to 100%,A (80-100)
"Cc1cc(/C=C/C(c2cc(Br)cc(Br)c2)C(F)(F)F)ccc1C(=O)N[C@H](C)CSCC(F)(F)F (stereo partly drawn) [F57, 4-((E)-3-(3,5-Dibromophenyl)-4,4,4-trifluorobut-1-en-1-yl)-2-methyl-N—((R)-1-((2,2,2-trifluoroethyl)thio)propan-2-yl)benzamide]",50 to 100%,50 to 100%,A (80-100)
"NC(=O)[C@H](CSCC(F)(F)F)NC(=O)c1ccc(/C=C/C(c2cc(Cl)c(Cl)c(Cl)c2)C(F)(F)F)cc1C(F)(F)F (stereo partly drawn) [F125, N—((R)-1-Amino-1-oxo-3-((2,2,2-trifluoroethyl)thio)propan-2-yl)-4-((E)-4,4,4-trifluoro-3-(3,4,5-trichlorophenyl)but-1-en-1-yl)-2-(trifluoromethyl)benzamide]",50 to 100%,50 to 100%,A (80-100)
"C[C@H](CSCC(F)(F)F)NC(=O)c1ccc(/C=C/C(c2cc(Cl)c(C#N)c(Cl)c2)C(F)(F)F)cc1C(F)(F)F (stereo partly drawn) [F109, 4-((E)-3-(3,5-Dichloro-4-cyanophenyl)-4,4,4-trifluorobut-1-en-1-yl)-N—((R)-1-((2,2,2-trifluoroethyl)thio)propan-2-yl)-2-(trifluoromethyl)benzamide]",50 to 100%,50 to 100%,A (80-100)
"Cc1cc(/C=C/C(c2cc(Cl)c(Cl)c(Cl)c2)C(F)(F)F)cc(F)c1C(=O)N[C@H](C)CS(=O)(=O)CC(F)(F)F (stereo partly drawn) [F98, 2-Fluoro-6-methyl-4-((E)-4,4,4-trifluoro-3-(3,4,5-trichlorophenyl)but-1-en-1-yl)-N—((R)-1-((2,2,2-trifluoroethyl)sulfonyl)propan-2-yl)benzamide]",50 to 100%,50 to 100%,A (80-100)
"C[C@H](C[S+]([O-])CC(F)(F)F)NC(=O)c1ccc(/C=C/C(c2ccc(Cl)c(Cl)c2)C(F)(F)F)cc1Br (stereo partly drawn) [F117, 2-Bromo-4-((E)-3-(3,4-dichlorophenyl)-4,4,4-trifluorobut-1-en-1-yl)-N-((2R)-1-((2,2,2-trifluoroethyl)sulfinyl)propan-2-yl)benzamide]",50 to 100%,50 to 100%,
"CCc1cc(/C=C/C(c2cc(Cl)c(Cl)c(Cl)c2)C(F)(F)F)ccc1C(=O)N[C@H](C)C[S+]([O-])CC(F)(F)F (stereo partly drawn) [F55, 2-Ethyl-4-((E)-4,4,4-trifluoro-3-(3,4,5-trichlorophenyl)but-1-en-1-yl)-N-((2R)-1-((2,2,2-trifluoroethyl)sulfinyl)propan-2-yl)benzamide]",50 to 100%,50 to 100%,
